Experimental data reported in ChEMBL document CHEMBL5661955, “ASAP - In vitro cytotoxicity” (2024).
Values joined by “and” are separate entries in the source; they are usually repeats but may differ in a detail not shown here. Equal entries are not always repeated.

How the values were obtained:
[1] = Functional metabolic assay to measure dose dependent changes in cell viability from drug treatment in Vero E6/TMPRSS2 cells (cotreated with P-gp inhibitor, Elacridar). […] Cytotoxicity is reported via measuring absorbance and analysis of MTT/MTS assays in uninfected cells. The assay has been performed by Icahn School of Medicine at Mount Sinai.; type: toxicity, cell-based, VeroE6/TMPRSS2; settings: chlorocebus sabaeus, p-gp concentration 2 uM
[2] = Functional assay to measure dose dependent changes in cell viability from drug treatment in Vero E6 miRFP670 cells (cotreated with P-gp inhibitor, CP100356) that are infected with Dengue virus type 2 New Guinea C. […] Cytotoxicity is reported via via analysis of DAPI count using high-content imager. The assay has been performed by KU Leuven.; type: toxicity, cell-based, Vero C1008; settings: chlorocebus sabaeus, p-gp concentration 500 nM
[3] = Functional CPE-based assay to measure dose dependent changes in cell viability from drug treatment in Vero E6 miRFP670 cells (cotreated with P-gp inhibitor, CP100356). Cells are treated with antiviral candidates that have been serially diluted. Cytotoxicity is reported via analysis of MTS assays in uninfected cells. The assay has been performed by KU Leuven.; type: toxicity, Vero C1008; settings: chlorocebus sabaeus, p-gp concentration 500 nM
[4] = with CP100356 (P-gp inhibitor, concentration not stated)
[5] = Vero E6/TMPRSS2 cells, with Elacridar (P-gp inhibitor, concentration not stated)
[6] = Vero E6 miRFP670 cells, with CP100356 (P-gp inhibitor, concentration not stated)

SMILES	CC10 ([1]; veroe6/tmprss2)	CC50 [2, 4]	CC50 [1, 5]	other results
COc1ccc(CCNc2nc(N3CCc4cc(OC)c(OC)cc4C3)c3cc(OC)c(OC)cc3n2)cc1OC	< 0.005 µM			
C[C@@]1(O)[C@H](O)[C@@H](CO)O[C@H]1n1ccc(N)nc1=O		> 200 µM		
CCCCCC(=O)N[C@H](C(=O)NCc1ccc(N)nc1)c1ccc(OCc2ccccc2)cc1		3.63 µM		
N#Cc1cc(Cl)cc(C(=O)Nc2ccc3c(c2)CNC3)c1	> 50 µM		> 50 µM	
Cc1ccc(S(=O)(=O)CNC(=O)[C@H](Nc2ccc3c(c2)CNC3)c2cc(Cl)cc3[nH]ncc23)cc1	> 50 µM		> 50 µM	
O=C(Nc1ccc2c(c1)CNC2)c1cc(Cl)ccc1SC1CCCC1	41.64 µM		> 50 µM	
N#Cc1cc(Cl)cc([C@H](C#N)Nc2ccc3c(c2)CNC3)c1	> 50 µM		> 50 µM	
O=C(Nc1ccc2c(c1)CNC2)c1cc(Br)cc2[nH]c(C3CCOCC3)nc12	3.442 µM		27.8 µM	
CCc1cc(Cl)cc(C(=O)Nc2ccc3c(c2)CNC3)c1	10.908 µM		> 50 µM	
Cc1ccc2cc(Cl)cc(C(=O)Nc3ccc4c(c3)CNC4)c2n1	2.835 µM		31.3 µM	
CN(C)C(=O)c1cc(CN)cc([C@@H]2C[C@H]2c2cc(Cl)cc(NC(=O)OCc3ccccc3)c2)c1		4.09 µM		
O=C(Nc1cnc2c(c1)CNCC2)c1cc(Cl)cc2[nH]ncc12	> 50 µM		> 50 µM	
CC(=Cc1cc(Cl)cc(NC(=O)OCc2ccccc2)c1)c1cccc(CN)c1		0.906 µM		
O=C(NCC1CCOCC1)[C@H](Nc1ccc2c(c1)CNC2)c1cc(Cl)cc2[nH]ncc12	> 50 µM		> 50 µM	
C=CC[C@H](Nc1cc(Cl)cc(NC(=O)OCc2ccccc2)c1)c1cccc(CN)c1		3.34 µM		
CCOC(=O)[C@H]1[C@H](c2cc(Cl)cc(NC(=O)OCc3ccccc3)c2)[C@H]1c1cccc(-c2nnn[nH]2)c1	> 50 µM		> 50 µM	
NCc1cccc([C@@H]2C[C@H]2c2cc(Cl)cc(NC(=O)OCc3ccccc3)c2)c1	> 50 µM		> 50 µM	
N#C[C@H](Nc1cccc(-c2nn[nH]n2)c1)c1cc(Cl)cc(NC(=O)OCc2ccccc2)c1	> 50 µM		> 50 µM	
NCc1cccc(NC(=O)C[C@H](NC(=O)OCc2ccccc2)c2ccc(OCc3ccccc3)c(Br)c2)c1	0.148 µM		38.4 µM	
C=CC[C@H](Nc1cccc(-c2nn[nH]n2)c1)c1cc(Cl)cc2[nH]ncc12	> 5 µM		> 5 µM	
NCc1cccc(NC(=O)c2cc(Cl)cc(CN)c2)c1				CC50 ([1]; veroe6/tmprss2): > 50 µM
NCc1ccc2c(c1)[C@H]1OCCC[C@H]1[C@H](c1cc(Cl)cc(NC(=O)OCc3ccccc3)c1)N2		5.8 µM		
CC[C@H](Cc1nnn[nH]1)c1ccc(NC(=O)c2cc(Cl)cc(-n3cccc3)c2)cc1	> 50 µM		> 50 µM	
O=S(=O)(Nc1cccc(-c2nnn[nH]2)c1)c1cc(Cl)cc(-c2ccccc2)c1	> 50 µM		> 50 µM	
O=C(Nc1cc(Cl)cc([C@H]2C[C@@H]2c2cccc(-c3nnn[nH]3)c2)c1)OCc1ccccc1		16.3 µM		
c1ccc2c(CN3CCC(c4cscn4)CC3)c[nH]c2c1				CC50 ([1]; veroe6/tmprss2): > 50 µM

SMILES	CC10 ([1]; veroe6/tmprss2)	CC50 [2, 4]	CC50 [1, 5]	other results
c1ccc(-c2csc(C3CCN(Cc4c[nH]c5ccccc45)CC3)n2)cc1	0.299 µM and 0.162 µM	> 10 µM		CC50 ([1]; veroe6/tmprss2): > 10 µM and 20.1 µM
CC1(C)NCc2cc(NC(=O)c3cc(F)cc4[nH]ncc34)ccc21				CC50 [3, 6]: > 50 µM
C[C@@H](N)c1cccc(NC(=O)[C@H]2[C@H]3CCCCC[C@H]3[C@H]2NC(=O)OCc2ccccc2)c1	0.044 µM		> 50 µM	
CCOc1cccc(-c2ccc(S(=O)(=O)Nc3cc4c(cc3C(=O)O)CCC4)cc2)c1	5.671 µM		> 50 µM	
O=C(Nc1cc(Cl)cc(C(=O)Nc2cccc([C@H]3CCNC3)c2)c1)OCc1ccccc1	2.776 µM		20.1 µM	
O=C(O)Cn1ncc2cc(-c3cc(Cl)cc(NC(=O)OCc4ccccc4)c3)ccc21		> 50 µM		
CCOC(=O)Nc1cc(Cl)cc(C(=O)Nc2cccc(CN)c2)c1	> 50 µM		> 50 µM	
CCOc1cccc(-c2ccc(S(=O)(=O)Nc3ccc(Cl)cc3C(=O)O)cc2)c1				CC50 ([1]; veroe6/tmprss2): > 50 µM
NCCCCc1ccc(NC(=O)c2cc(Cl)cc(NC(=O)OCc3ccccc3)c2)cc1	> 50 µM	6.49 µM	> 50 µM	
O=C(Nc1cc(Cl)cc(S(=O)(=O)Nc2cccc(-c3nn[nH]n3)c2)c1)OCc1ccccc1	> 50 µM		> 50 µM	
NCc1cccc(CNC(=O)[C@@H](NC(=O)OCc2ccccc2)c2ccc(OCc3ccccc3)cc2)c1		1.9 µM		
NCc1ccc(F)c(NC(=O)c2cc(Cl)cc(NC(=O)OCc3ccccc3)c2)c1	> 50 µM		> 50 µM	
O=C(Nc1cc(Cl)cc(CNc2cccc(-c3nn[nH]n3)c2)c1)OCc1ccccc1		> 50 µM		
O=C(O)CCc1ccc(NC(=O)c2cc(Cl)cc(NC(=O)OCc3ccccc3)c2)cc1	> 50 µM		> 50 µM	
O=C(Nc1cc(Cl)cc(C(=O)Nc2cc(Br)cc(-c3nnn[nH]3)c2)c1)OCc1ccccc1	> 50 µM		> 50 µM	
C=CC[C@H](Nc1cc(Cl)cc(NC(=O)OCc2ccccc2)c1)c1cccc(-c2nn[nH]n2)c1	0.105 µM		> 50 µM	
NCCCc1ccnc(NC(=O)c2cc(Cl)cc(NC(=O)OCc3ccccc3)c2)c1	2.116 µM		16.2 µM	
CC[C@H](Cc1nn[nH]n1)c1ccc(N[C@H](C(=O)NC)c2cc(Cl)cc(NC(=O)OCc3ccccc3)c2)cc1	> 50 µM		> 50 µM	
O=C(Nc1cc(Cl)cc([C@H](C#CCO)Nc2ccc(-c3nn[nH]n3)cc2)c1)OCc1ccccc1		> 50 µM		
CC(=Cc1cccc(CN)c1)c1cc(Cl)cc(NC(=O)OCc2ccccc2)c1		3.26 µM		
NCc1cccc(NC(=O)c2cc(Cl)cc(N3CCCC3=O)c2)c1				CC50 ([1]; veroe6/tmprss2): > 50 µM
CNC(=O)[C@H](Nc1cc(Cl)cc(NC(=O)OCc2ccccc2)c1)c1cccc(-c2nn[nH]n2)c1	> 50 µM		> 50 µM	
O=C(Nc1ccc2c(c1)CNC2)c1cc(Cl)cc2[nH]c(-c3cccc(F)c3)nc12				CC50 [3, 6]: > 50 µM
N[C@H]1CC[C@H](c2ccc(NC(=O)c3cc(Cl)cc(NC(=O)OCc4ccccc4)c3)cc2)C1		2.84 µM		
NCc1cccc(NC(=O)c2cc(Cl)cc(NC(=O)OCc3ccccc3)c2)c1				CC50 ([1]; veroe6/tmprss2): > 10 µM and 18.5 µM and 30.7 µM
CNC(=O)[C@H](Nc1cccc(CN)c1)c1cc(Cl)cc(NC(=O)OCc2ccccc2)c1		23.7 µM		

SMILES	CC10 ([1]; veroe6/tmprss2)	CC50 [2, 4]	CC50 [1, 5]	other results
CC[C@H](Cc1nnn[nH]1)c1ccc(NC(=O)[C@H]2[C@H]3CCCCC[C@H]3[C@H]2NC(=O)OCc2ccccc2)cc1	> 50 µM		> 50 µM	
CC(=O)Nc1cc(Cl)cc(C(=O)Nc2cccc(CN)c2)c1	> 50 µM		> 50 µM	
Clc1cccc([C@H](C#Cc2ccccc2)Nc2cccc(-c3nn[nH]n3)c2)c1		6.84 µM		
NCc1cccc(NC(=O)[C@H]2[C@H]3CCCCC[C@H]3[C@H]2NC(=O)OCc2ccccc2)c1	0.166 µM		10.3 µM	
O=C(Nc1cc(Cl)cc(C(=O)Nc2cc(-c3nnn[nH]3)ccc2F)c1)OCc1ccccc1	> 50 µM		> 50 µM	
O=C(Nc1ccc2c(c1)CN[C@H]2C1CC1)c1cc(F)cc2[nH]ncc12				CC50 [3, 6]: > 50 µM
Cc1ccc(-c2nnn[nH]2)cc1NC(=O)c1cc(Cl)cc(NC(=O)OCc2ccccc2)c1	> 50 µM		> 50 µM	
NCc1cccc(NC(=O)[C@@H](NC(=O)OCc2ccccc2)c2ccc(Br)c(Cl)c2)c1	0.556 µM		8.15 µM	
NCc1ccc([C@H]2C[C@@H]2c2cc(Cl)cc(NC(=O)OCc3ccccc3)c2)cc1		3.51 µM		
CCCC(=O)Nc1cc(Cl)cc(C(=O)Nc2cccc(CN)c2)c1	> 50 µM		> 50 µM	
C=CC[C@H](Nc1cccc(-c2nn[nH]n2)c1)c1cc(Cl)cc(NC(=O)OCc2ccccc2)c1		6.9 µM		
O=C(Nc1cc(Cl)cc(C(=O)Nc2ccc3c(c2)CCNC3)c1)OCc1ccccc1		2.91 µM		
O=C(Nc1ccc2c(c1)CNC2)c1cc(F)cc2nn(-c3ccccn3)nc12				CC50 ([2]; vero c1008): 7.3 µM and 1.92 µM; CC50 ([3]; vero c1008): 7.85 µM and 1.85 µM
O=C(Nc1cc(Cl)cc(C(=O)Nc2ccc3c(c2)CNCCO3)c1)OCc1ccccc1	< 0.023 µM		> 50 µM	
C[C@H]1NCc2cc(NC(=O)c3cc(F)cc4[nH]ncc34)ccc21				CC50 [3, 6]: > 50 µM
CNC(=O)c1cc(Cl)c(F)cc1NS(=O)(=O)c1ccc(Oc2ccccc2Cl)cc1		5.65 µM		
CNC(=O)[C@H](Nc1cc(Cl)cc(NC(=O)OCc2ccccc2)c1)c1cccc(CN)c1		24.2 µM		
O=C(Nc1ccc2c(c1)CNC2)c1cc(Cl)cc2[nH]c(-c3ccccc3)nc12				CC50 [3, 6]: 2.09 µM
CC[C@H](Cc1nnn[nH]1)c1ccc(NC(=O)c2cc(Cl)cc(C3CC3)c2)cc1	> 50 µM		> 50 µM	
O=C(Nc1ccc2c(c1)CNC2)c1cc(F)cc2[nH]c(-c3ccccc3)nc12				CC50 ([2]; vero c1008): > 50 µM and 6.86 µM; CC50 [3, 6]: 5.81 µM; CC50 ([3]; vero c1008): 4.83 µM
O=C(Nc1cc(Cl)cc(N[C@H](C#CCO)c2ccc(-c3nn[nH]n3)cc2)c1)OCc1ccccc1	> 50 µM		> 50 µM	
N#C[C@H](Nc1cc(Cl)cc(NC(=O)OCc2ccccc2)c1)c1ccc(-c2nn[nH]n2)cc1		13 µM		
O=C(O)c1cc(Cl)ccc1S(=O)(=O)NC1CCN(c2nc(C3CC3)cc(C(F)(F)F)n2)CC1				CC50 ([1]; veroe6/tmprss2): > 10 µM and 49.7 µM
NCc1cccc(NC(=O)c2cc(Cl)cc3c2CCC3)c1				CC50 ([1]; veroe6/tmprss2): > 50 µM
O=C(Nc1cc(Cl)cc(C(=O)Nc2ccc([C@@H]3C[C@H]3C(=O)O)cc2)c1)OCc1ccccc1		21.1 µM		
